US8853224B2 (priority 2006, dated 2014)

What follows are compounds tested against Plasmodium falciparum purine nucleoside phosphorylase (PfPNP) (Plasmodium falciparum (isolate 3D7), UniProt Q8I3X4) (assay: biochemical).
Excerpt: For inhibitors without slow-onset properties, fits to the same equation were made, but using initial reaction rates.
For O=c1[nH]cnc2c(CNC[C@@H](O)[C@H](O)CO)c[nH]c12 (racemic) [Example 20.5, 7-(((2RS,3RS)-2,3,4-trihydroxybutylamino)methyl)-3H-pyrrolo[3,2-d]pyrimidin-4(5H)-one], the Kd was 32 ± 2 µM.
Compound O=c1[nH]cnc2c(CNC[C@H](O)[C@H](O)CO)c[nH]c12 [Example 19.3, 7-(((2S,3R)-2,3,4-trihydroxybutylamino)methyl)-3H-pyrrolo[3,2-d]pyrimidin-4(5H)-one] has a Kd of 12 ± 2 µM.
O=c1[nH]cnc2c(CNCC(CO)CO)c[nH]c12 [Example 8, 7-((3-hydroxy-2-(hydroxymethyl)propylamino)methyl)-3H-pyrrolo[3,2-d]pyrimidin-4(5H)-one] was tested, and the Kd was 0.21 ± 0.05 µM.
